# Test results reported in patent US12636285B2 (ViiV Healthcare Company, priority 2019, dated 2026).
# Several values for one entry are separate records, joined by “and”; a condition that tells them apart may be missing. Equal values may be shown once. Read-outs that look alike come from different tables or passages of the source.
# Key:
# [1] = oral administration once daily; cited from earlier work
# [2] = QT cross-over trial of oral cabotegravir in healthy subjects; type: in vivo, human; conditions: oral cabotegravir 150 mg every 12 hours
# OAT3 = molecular target: T1, OAT3 (Homo sapiens, UniProt Q8TCC7); assay: In vitro transporter inhibition, OAT3; type: in vitro ADME
# T1 sequence (Q8TCC7 1-542): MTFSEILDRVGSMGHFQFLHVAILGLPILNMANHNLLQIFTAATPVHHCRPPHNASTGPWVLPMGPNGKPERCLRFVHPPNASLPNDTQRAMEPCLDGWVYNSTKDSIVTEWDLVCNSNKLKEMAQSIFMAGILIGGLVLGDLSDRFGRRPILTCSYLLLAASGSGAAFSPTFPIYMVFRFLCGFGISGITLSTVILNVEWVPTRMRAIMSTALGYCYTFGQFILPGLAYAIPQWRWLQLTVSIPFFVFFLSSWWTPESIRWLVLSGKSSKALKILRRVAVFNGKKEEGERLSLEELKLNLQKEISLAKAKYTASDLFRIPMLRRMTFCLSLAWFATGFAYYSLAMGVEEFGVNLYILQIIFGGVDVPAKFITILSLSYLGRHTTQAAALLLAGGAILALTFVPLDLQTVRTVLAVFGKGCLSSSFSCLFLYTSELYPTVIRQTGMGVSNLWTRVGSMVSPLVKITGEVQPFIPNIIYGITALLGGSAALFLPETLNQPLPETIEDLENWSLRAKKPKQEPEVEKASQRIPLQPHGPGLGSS
# Description: (§1) However, based on PBPK modeling, no interaction with OAT substrates is expected at clinically relevant concentrations.
# [3] = Mass balance studies, single-dose oral [14C] drug; type: in vivo, human; conditions: single-dose oral [14C] drug
# [4] = system: OATP1B1, OATP1B3, OCT1, P-gp, BCRP; assay: In vitro transporter substrate assessment; type: in vitro ADME
# [5] = Pharmacokinetics in specific populations (renal, hepatic impairment, UGT1A1 genotype); type: in vivo, human; conditions: for pharmacokinetic differences vs matching healthy subjects: oral cabotegravir
# Description: No dosage adjustment is necessary for patients with mild to severe renal impairment (not on dialysis).
# No dosage adjustment is necessary for patients with mild to moderate hepatic impairment (Child-Pugh Score A or B).
# No dose adjustment is required in subjects with UGT1A1 polymorphisms.
# [6] = Lactating rats, exposure of pups through milk; type: in vivo, rat; conditions: administered to lactating rats
# Description: The Centers for Disease Control and Prevention recommends that HIV-1-infected mothers in the United States not breastfeed their infants to avoid risking postnatal transmission of HIV-1 infection. It is not known if the components of the Combination are present in human breast milk, affect human milk production, or have effects on the breastfed infant. […] Animal Data: Cabotegravir: […] Rilpivirine: […]
# [7] = Genotoxicity: bacterial reverse mutation assay, mouse lymphoma assay, in vivo rodent micronucleus assay
# [8] = Multiple-dose pharmacokinetics after monthly IM injections, population PK post-hoc estimates FLAIR and ATLAS; type: in vivo, human; conditions: 400-mg monthly IM injection
# HIV-1 clinical isolates = assay: Antiviral activity in PBMCs against clinical isolates; type: cell-based; conditions: Human immunodeficiency virus 1, PBMC
# [9] = Binding to human plasma proteins; type: in vitro ADME; conditions: read-out: % Bound to human plasma proteins (converted)
# HIV-1 [10] = assay: Antiviral activity in combination with other antivirals, cell culture; type: cell-based; conditions: cell culture
# [11] = system: recombinant HIV-1 strain NL432 viruses; type: cell-based
# [12] = Pharmacokinetic properties of the components of the Combination (Table 6); set-up: species or system human; conditions: in vivo
# [13] = molecular target: T2, renal organic anion transporters (OAT)1 (Homo sapiens, UniProt Q4U2R8); assay: In vitro transporter inhibition, OAT1; type: in vitro ADME
# T2 sequence (Q4U2R8 1-563): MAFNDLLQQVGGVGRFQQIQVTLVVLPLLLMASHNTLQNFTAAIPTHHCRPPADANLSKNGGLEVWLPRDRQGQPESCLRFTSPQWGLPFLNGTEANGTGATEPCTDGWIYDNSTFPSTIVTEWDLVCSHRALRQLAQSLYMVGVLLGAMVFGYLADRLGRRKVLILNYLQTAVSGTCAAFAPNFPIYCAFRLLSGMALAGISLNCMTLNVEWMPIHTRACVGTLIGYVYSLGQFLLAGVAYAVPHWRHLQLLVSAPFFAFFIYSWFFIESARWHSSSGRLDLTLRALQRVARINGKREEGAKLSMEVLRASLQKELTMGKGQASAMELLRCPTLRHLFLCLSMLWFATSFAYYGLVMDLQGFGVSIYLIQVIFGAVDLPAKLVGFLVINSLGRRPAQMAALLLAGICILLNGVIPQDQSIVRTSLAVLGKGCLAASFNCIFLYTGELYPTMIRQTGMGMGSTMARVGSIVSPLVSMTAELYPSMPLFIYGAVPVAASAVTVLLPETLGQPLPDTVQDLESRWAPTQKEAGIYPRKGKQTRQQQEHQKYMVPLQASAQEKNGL
# Description: as §1
# CYP1A2, CYP2B6, CYP3A4 = assay: In vitro CYP induction; type: in vitro ADME
# [14] = in vivo
# Description: The observed hepatocellular findings in mice may be rodent specific.
# HIV-1 [15] = system: HIV-1
# HIV-1 integrase = HIV-1 integrase (Human immunodeficiency virus type 1 group M subtype B, UniProt P04585)
compound,measurement,setting,value
"C[C@H]1CO[C@@H]2Cn3cc(C(=O)NCc4ccc(F)cc4F)c(=O)c(O)c3C(=O)N12 [Cabotegravir, (3S,11aR)-N-[(2,4-difluorophenyl)methyl]-6-hydroxy-3-methyl-5,7-dioxo-2,3,5,7,11,11a-hexahydro[1,3]oxazolo[3,2-a]pyrido[1,2-d]pyrazine-8-carboxamide]",half-life,[1],40 h
same,QTc interval over 24 hours post dose,[2],did not prolong the QTc interval
same,"maximum time-matched mean QTc change (QTcF), baseline and placebo adjusted",[2]; 3 doses,2.62 ms
same,IC50,OAT3,410 nM
same,% of dose excreted as total 14C in feces,[3],59%
same,% of dose excreted as total 14C in urine,[3],27%
same,% of dose excreted as unchanged drug in feces,[3],47%
same,% of dose excreted as unchanged drug in urine,[3],0%
same,"substrate of OATP1B1, OATP1B3, or OCT1",[4],not a substrate
same,substrate of P-gp and BCRP,[4],is a substrate
same,"increase in mean steady-state AUC, Cmax, and Ctau vs normal UGT1A1 metabolism","[5]; UGT1A1 genotypes conferring poor metabolism, long-acting injection",1.2 fold
same,pharmacokinetic differences vs matching healthy subjects,[5]; moderate hepatic impairment,No clinically important pharmacokinetic differences
same,pharmacokinetic differences vs matching healthy subjects,"[5]; severe renal impairment (CrCL<30 mL/min, not on dialysis)",No clinically important pharmacokinetic differences
same,presence in milk,[6],present in milk
same,genotoxicity,[7],not genotoxic
same,"Ctrough, geometric mean",[8],2.9 µg/mL
same,AUC,"[8]; human, in vivo, read-out: AUCtau, geometric mean",2460 µg·h/mL
same,Cmax,"[8]; human, in vivo, read-out: Cmax, geometric mean",4200 ng/mL
same,EC50,"HIV-1 clinical isolates; read-out: EC50 range, panel of 24 HIV-1 clinical isolates, PBMCs",0.02 to 1.06 nM
same,EC50,"HIV-1 clinical isolates; read-out: EC50 range, subtype B clinical isolates, n=3",0.02 to 0.5 nM
same,EC50,"HIV-1 clinical isolates; read-out: median EC50, panel of 24 HIV-1 clinical isolates (group M subtypes A-G, group O), PBMCs",0.19 nM
same,EC50,"HIV-1 clinical isolates; read-out: median EC50, subtype B clinical isolates, n=3",0.05 nM
same,fraction unbound,[9],< 0.002
same,"antiviral activity in combination with rilpivirine, emtricitabine (FTC), lamivudine (3TC), or tenofovir disoproxil fumarate (TDF)",HIV-1 [10],not antagonistic
same,"activity against viruses with NNRTI substitutions K103N or Y188L, or NRTI substitutions M184V, D67N/K70R/T215Y, or V751/F77L/F116Y/Q151M",[11],active
same,reduction in susceptibility,[11]; E138K+Q148K,81 fold
same,reduction in susceptibility,[11]; Q148R+N155H,61 fold
same,Tmax,"[12]; human, im, intramuscular injection, read-out: Tmax, median (converted)",168 h
same,half-life,"[12]; human, im, intramuscular injection, read-out: t1/2 (absorption rate limited), mean",39.2 to 80.5 days
same,Major route of elimination,[12],Metabolism
same,Metabolic pathways,[12],UGT1A1
same,Metabolic pathways,[12]; minor pathway,UGT1A9 (minor)
same,IC50,[13],810 nM
same,"induction of CYP1A2, CYP2B6, or CYP3A4","CYP1A2, CYP2B6, CYP3A4",did not induce
same,carcinogenicity,[14]; mouse,not carcinogenic
same,carcinogenicity,[14]; rat,not carcinogenic
same,decreased susceptibility in virologic failures,"HIV-1 [15]; G140R, n=1",7 fold
same,decreased susceptibility in virologic failures,"HIV-1 [15]; N155H, n=1",3 fold
same,decreased susceptibility in virologic failures,"HIV-1 [15]; Q148R, n=2",5 fold and 9 fold
same,IC50,HIV-1 integrase,3 nM
